Legend:
K562 = assay: Growth suppression, cancer cell line panel (resazurin); format: cell-based; conditions: K562 leukemia, 48 hours
Procedure: (§1) Breast, colon, ovarian, cervical, liver and lung carcinoma cell lines were grown in DMEM supplemented with 10% FBS, and antibiotics were cultured at 37 °C and 5% CO2. Osteosarcoma, melanoma, lymphoma, neuroblastoma and leukemia cell lines were cultured in RPMI 1640 with 10% FBS and antibiotics. An oxygen concentration of 0.3% was obtained by flushing a sealed box containing the cells with premixed gas composed of 95% nitrogen (N2) and 5% CO2 (AGA AB, Sweden). To obtain an oxygen concentration of 0.05%, the cells were flushed with the premixed gas continuously throughout the experiment.
(§2) Cells were grown in 96-well plates at a density of 3000 cells per well with or without doxycycline and treated with compounds. After 48 hours of incubation the proliferative cell reagent resazurin (Thermo Fisher Scientific) was added to the cells. The degree of resazurin reduction, which reflects cell viability, was measured by microplate reader by monitoring the absorbance at 570 nm and 600 nm, according to the manufacturer.
(§3) Growth suppression by the soluble compound 1d*HCl in a panel of 27 cancer cell lines. The panel of cancer cell lines, including carcinomas of breast (MDA-MB231, SKBR3, T47D, MCF7; BT549, BT20, MDA-MB468), colon, (SW480, RKO, HT29, HCT116) ovarian (OVCAR3, OVCAR4, OVCAR8), cervical (SW756, C33A), liver (HEPG2) and lung (H23), osteosarcoma (SJSA and U2OS), melanoma (ME180), lymphoma (Raji, HDLM2), neuroblastoma (SKNAS, IMR32) and leukemia (NB4, K562) were treated with increasing concentrations of 1d*HCl: 0.4; 0.8; 1.6; 3.2; 6.4; 12.8; 25.6 µM in 96-well plates. After 48 hours of incubation the proliferative cell reagent resazurin was added to the cells. The degree of resazurin reduction, which reflects cell viability, was measured by microplate reader by monitoring the absorbance at 570 nm and 600 nm, according to the manufacturer, and the IC50 and AUC (area under curve) were determined (Table 2). As could be seen in Table 2, 1d*HCl suppressed the growth of cancer cell lines of a different origin, including carcinomas, osteosarcomas, melanoma, lymphoma, leukemia and neuroblastoma. These findings open up a possibility of the application of the present invention in anti-cancer therapy in a broad range of tumor types. Table 2: a) Breast cancer

ME180 = assay: as above; format: cell-based; conditions: ME180 (table section Cervical), 48 hours
Procedure: as §1, §2, §3

SKBR3 = assay: as above; format: cell-based; conditions: SKBR3 breast, 48 hours
Procedure: as §1, §2, §3

SW756 = assay: as above; format: cell-based; conditions: SW756 cervical, 48 hours
Procedure: as §1, §2, §3

T47D = assay: as above; format: cell-based; conditions: T47D breast, 48 hours
Procedure: as §1, §2, §3

HCT116 cells = assay: Growth suppression in the presence of antioxidant NAC; format: cell-based; conditions: HCT116, 5 mM NAC pre-treatment 16h; 2.5, 5 and 10 µM; 24h after treatment
Procedure: as §2
To find out whether oxidative stress plays a role in cancer cell death induced by 1d*HCl, we tested the extent of growth suppression by the treatment in the presence of antioxidant N-acetyl cysteine (NAC), which neutralize ROS. We pre-treated HCT116 cells with 5 mM NAC. After 16h of incubation with NAC, we treated HCT116 cells with 2.5, 5, and 10 µM of 1d*HCl. We measured the growth suppression 24h after treatment. […] Thus, we conclude that the mechanism of cancer cell growth suppression is dependent on the induction of oxidative stress by the compounds of the present invention.

GR = GR (Homo sapiens, UniProt P00390); assay: GR enzymatic activity measurement in vitro; format: biochemical; design: purchased Sigma; conditions: recombinant purified enzyme in vitro
GR, sequence (P00390 44-522): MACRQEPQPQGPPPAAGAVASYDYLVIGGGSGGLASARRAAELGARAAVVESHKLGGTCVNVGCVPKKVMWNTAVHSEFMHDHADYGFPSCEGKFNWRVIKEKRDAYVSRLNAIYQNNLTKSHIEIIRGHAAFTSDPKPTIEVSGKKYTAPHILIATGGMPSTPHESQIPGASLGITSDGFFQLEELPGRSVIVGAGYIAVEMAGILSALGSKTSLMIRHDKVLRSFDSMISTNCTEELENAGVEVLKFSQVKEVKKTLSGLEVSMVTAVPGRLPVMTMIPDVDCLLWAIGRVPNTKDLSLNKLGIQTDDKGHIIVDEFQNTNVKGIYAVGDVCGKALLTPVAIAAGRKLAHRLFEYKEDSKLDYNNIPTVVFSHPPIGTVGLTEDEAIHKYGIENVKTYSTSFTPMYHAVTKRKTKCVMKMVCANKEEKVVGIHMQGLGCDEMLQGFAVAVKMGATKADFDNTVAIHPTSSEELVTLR
Procedure: TrxRl enzyme was recombinantly produced with high Sec contents in a specific Release Factor 1-depleted E. coli strain and purified as previously described (Arnér ESJ, Holmgren A, in Current Protocols in Toxicology, Maines M, Costa L, Reed D, Sassa S, Eds. (John Wiley & Sons, Inc., New York, 2000), pp. 7.4.1-7.4.14). TrxRl and GSR (Sigma) recombinant enzyme assays were performed in a reaction buffer containing 50 mM Tris pH 7.5 with 2 mM EDTA and 0.1 mg/mL bovine serum albumin as described previously (Arnér ESJ, Holmgren A, in Current Protocols in Toxicology, Maines M, Costa L, Reed D, Sassa S, Eds. (John Wiley & Sons, Inc., New York, 2000), pp. 7.4.1-7.4.14). Briefly, assays were performed in triplicate using 96-well plates, with activity inferred from absorbance changes using a Spectra Max plate reader. Results of recombinant enzyme assays were normalized to DMSO and to no enzyme controls.
Glutathione reductase inhibition assay was performed according to (S. Busker, W. Qian, M. Haraldsson, B. Espinosa, L. Johansson, S. Attarha, I. Kolosenko, J. Liu, M. Dagnell, D. Grandér, E.S.J. Arnér, K. PokrovskajaTamm, B.D.G. Page. Irreversible TrxRl inhibitors block STAT3 activity and induce cancer cell death, Sci. Adv., 6 (2020), 10.1126/sciadv.aax7945). 5 or 10 µM compound was incubated with 175 µM GSH in TE buffer. […]

## Cl.N#Cc1c(-c2cccnc2)[n+]([O-])c2cc(F)c(N3CCOCC3)cc2[n+]1[O-] [1d*HCl, 6-Fluoro-7-(morpholin-4-yl)-3-(pyridin-3-yl)quinoxaline-2-carbonitrile-1,4-dioxide hydrochloride]
K562; Homo sapiens, resazurin
  IC50: 2950 nM
K562; area under curve, 0.4-25.6 µM
  AUC: 4,39
ME180; Homo sapiens, ME-180, resazurin
  IC50: 2230 nM
ME180; area under curve, 0.4-25.6 µM
  AUC: 2,72
SKBR3; Homo sapiens, SK-BR-3, resazurin
  IC50: 2130 nM
SKBR3; area under curve, 0.4-25.6 µM
  AUC: 3,06
SW756; Homo sapiens, resazurin
  IC50: 1540 nM
SW756; area under curve, 0.4-25.6 µM
  AUC: 2,84
T47D; Homo sapiens, resazurin
  IC50: 2740 nM
T47D; area under curve, 0.4-25.6 µM
  AUC: 3,93
HCT116 cells
  growth suppression in the presence of NAC: almost completely abolished the growth suppression
GR
  GR activity: did not inhibit GR activity
